Results as given in patent US20090012009A1, “Composition and Method for Treating Inflammatory Disease” (priority 2007, published 2009).

Assays:
arthritic rats [1] = conditions: previous dosing studies; cited from earlier work
hFR-β = target: T1, hFR-β (Homo sapiens, UniProt P14207); test: Relative binding affinity of folate-hapten conjugates, displacement of 3H-folic acid from CHO-β cells; conditions: 10 nM 3H-folic acid
T1 construct: expressed in transfected cells; host or cells: CHO-β cells (CHO cells expressing hFR-β)
Description: The relative binding affinities of folate-hapten conjugates to hFR-β were examined using a previously described method (Reddy et al., 2004). CHO-β cells expressing hFR-β were seeded on 48-well plates at 70% confluence and cultured at 37° C. in folate-deficient RPMI1640 medium (Invitrogen, CA, USA) supplemented with 1× penicillin/streptomycin (Gibco, Calif., USA) and 10% fetal bovine serum (FBS) (Atlanta Biologicals, GA, USA) in a 5% CO2 humidified incubator. Twenty-four hours later, cells were washed twice with PBS (pH 7.4), after which a 10 nM solution of ^3H-folic acid (GE Healthcare, NJ, USA) was added with increasing concentrations (10^−10M to 10^−5M) of either folate-FITC, folate-DNP1, folate-DNP2, folate-DNP3, or folate-TNP in cell culture medium. Cells were incubated at 37° C. for 1 h and washed 3× with 0.5 ml PBS. 0.5 ml of 1.0% sodium dodecyl sulfate (SDS) in PBS was added to each well, and after 5 min, cell lysates were collected and transferred to vials containing scintillation cocktail and counted for radioactivity. Relative binding affinity was defined as the molar ratio required for displacement of 50% of bound ^3H-folic acid from the cell surface.

arthritic rats [2] = test: Arthritis scores, adjuvant-induced arthritis in rats; assay type: in vivo, rat; conditions: i.p. 5×/week; scale 0-4, scored 2×/week
Description: (§1) Experimental adjuvant-induced arthritis was induced according to a previously described method (Paulos et al., 2006; van Eden et al., 1996). Briefly, adjuvant was prepared by adding finely ground heat-killed Mycobacterium butyricum(Difco Laboratories, MI, USA) in mineral oil (Sigma-Aldrich, MO, USA) at a final concentration of 1 mg/ml. The adjuvant was kept under constant stirring to ensure homogenous distribution of the mycobacterial particles. Immunized rats were anesthetized with ketamine and xylazine (100 mg/kg and 13 mg/kg, respectively) and injected in the right hind paw with 100 μl of the mycobacterial suspension. Paw inflammation was monitored daily until the first symptoms of RA appeared on the left, non-injected hind paw. […]
(§2) To compare the efficacies of the various folate-hapten conjugates in treating RA, arthritic rats were injected i.p. 5×/week with either: 1) vehicle alone (PBS), 2) 100 nmol/kg of folate-FITC, 3) 30 nmol/kg folate-DNP1, 4) 200 nmol/kg folate-DNP1, 5) 30 nmol/kg folate-DNP2, 6) 200 nmol/kg folate-DNP2, 7) 30 nmol/kg folate-DNP3, 8) 200 nmol/kg folate-DNP3, 9) 30 nmol/kg folate-TNP, or 10) 200 nmol/kg folate-TNP. Paw volumes, arthritis scores, spleen enlargement, bone degradation, and the biodistribution of FR+macrophages were then quantitated as a function of time during therapy, as described below. […]

[3] = tested on: FR-β+ activated macrophages; test: 99mTc-EC20 biodistribution in spleens and livers of arthritic rats; assay type: in vivo, rat; conditions: 4 h after i.p. 99mTc-EC20 (67 nmol/kg); versus PBS-treated group
Description: To compare the efficacies of the various folate-hapten conjugates in treating RA, arthritic rats were injected i.p. 5×/week with either: 1) vehicle alone (PBS), 2) 100 nmol/kg of folate-FITC, 3) 30 nmol/kg folate-DNP1, 4) 200 nmol/kg folate-DNP1, 5) 30 nmol/kg folate-DNP2, 6) 200 nmol/kg folate-DNP2, 7) 30 nmol/kg folate-DNP3, 8) 200 nmol/kg folate-DNP3, 9) 30 nmol/kg folate-TNP, or 10) 200 nmol/kg folate-TNP. Paw volumes, arthritis scores, spleen enlargement, bone degradation, and the biodistribution of FR+macrophages were then quantitated as a function of time during therapy, as described below.
Paw volumes were measured 2×/week by multiplying length, height, and width of the non-injected hind paw (Paulos et al., 2006). […] Spleen enlargement was assessed 25 days after initial treatment by euthanizing the animal and measuring the weight of the resected organs. Bone degradation of the non-injected hind paw was evaluated by x-ray radiography in one representative rat from each hapten group treated at 200 nmol/kg folate-hapten conjugate. The biodistribution of FR+ macrophages in each treatment group was also quantified using the FR-targeted radioimaging agent, ^99mTc-EC20, which was prepared as described previously (Turk et al., 2002). Briefly, each rat was injected i.p. with 500 μCi of radioactivity at a dose of 67 nmol/kg of EC20. […]

arthritic rats [4] = test: Paw volumes of non-injected hind paws, adjuvant-induced arthritis in rats; assay type: in vivo, rat; conditions: i.p. 5×/week, 30 or 200 nmol/kg (folate-FITC 100 nmol/kg)
Description: as §1, §2

T1 sequence (P14207 17-230): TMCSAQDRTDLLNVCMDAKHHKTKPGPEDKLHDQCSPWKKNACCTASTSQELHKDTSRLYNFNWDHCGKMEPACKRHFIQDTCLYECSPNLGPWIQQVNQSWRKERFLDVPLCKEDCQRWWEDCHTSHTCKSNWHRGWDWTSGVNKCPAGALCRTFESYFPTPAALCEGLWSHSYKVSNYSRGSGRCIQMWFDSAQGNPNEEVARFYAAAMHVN

SMILES	daily dose giving optimal responses (arthritic rats [1])	rank order of binding affinity of the folate-hapten conjugates (hFR-β)	relative potencies in preventing the increase in arthritis score (arthritic rats [2])	uptake of 99mTc-EC20 in spleens and livers [3]	paw swelling (volume changes in non-injected hind paws) (arthritic rats [4])
Nc1nc2ncc(CNc3ccc(C(=O)NC(CCC(=O)NCCNC(=S)Nc4ccc(C(=O)O)c(-c5c6ccc(=O)cc-6oc6cc(O)ccc56)c4)C(=O)O)cc3)nc2c(=O)[nH]1 (stereo not shown) [folate-FITC, reference compound]	100 nmol/kg	folate-DNP3>folate-DNP2>folate-DNP 1>folate-TNP>folate-FITC	TNP=FITC>DNP1>DNP2>DNP3		
Nc1nc2ncc(CNc3ccc(C(=O)N[C@H](CCC(=O)N[C@H](CCCCNc4c([N+](=O)[O-])cc([N+](=O)[O-])cc4[N+](=O)[O-])C(=O)O)C(=O)O)cc3)nc2c(=O)[nH]1 [folate-TNP]		folate-DNP3>folate-DNP2>folate-DNP 1>folate-TNP>folate-FITC	TNP=FITC>DNP1>DNP2>DNP3	folate-DNP1 and folate-DNP2 appeared to be superior	more effective than any of the folate-DNP conjugates, but similar in potency to folate-FITC
